Reference: PubChem BioAssay (NCI)
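Following 48 hours of exposure in 96-well plates, responses at five concentrations were used to interpolate endpoints linearly. Definition used: TGI = concentration required for complete inhibition of growth.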

Key:
Assay in all cases: NCI-60 cell line screen, 48 h
UACC-62 melanoma = test system: UACC-62 melanoma
OVCAR-3 ovarian = test system: OVCAR-3 ovarian
MOLT-4 leukemia = test system: MOLT-4 leukemia
M14 melanoma = test system: M14 melanoma
SF-268 CNS = test system: SF-268 CNS
RPMI-8226 leukemia = test system: RPMI-8226 leukemia
DU-145 prostate = test system: DU-145 prostate
OVCAR-4 ovarian = test system: OVCAR-4 ovarian
KM12 colon = test system: KM12 colon
HCT-15 colon = test system: HCT-15 colon
MDA-MB-435 = test system: MDA-MB-435
SK-OV-3 ovarian = test system: SK-OV-3 ovarian
HS 578T breast = test system: HS 578T breast
MCF7 breast = test system: MCF7 breast
HT29 colon = test system: HT29 colon
TK-10 renal = test system: TK-10 renal
NCI/ADR-RES ovarian = test system: NCI/ADR-RES ovarian
IGROV1 ovarian = test system: IGROV1 ovarian
K-562 leukemia = test system: K-562 leukemia
BT-549 breast = test system: BT-549 breast
HOP-92 NSCLC = test system: HOP-92 NSCLC
UO-31 renal = test system: UO-31 renal
ACHN renal = test system: ACHN renal
COLO 205 colon = test system: COLO 205 colon
UACC-257 melanoma = test system: UACC-257 melanoma
PC-3 prostate = test system: PC-3 prostate
SK-MEL-2 melanoma = test system: SK-MEL-2 melanoma
SN12C renal = test system: SN12C renal
NCI-H23 lung = test system: NCI-H23 lung
NCI-H460 lung = test system: NCI-H460 lung
SK-MEL-28 melanoma = test system: SK-MEL-28 melanoma
CAKI-1 renal = test system: CAKI-1 renal
OVCAR-5 ovarian = test system: OVCAR-5 ovarian
SK-MEL-5 melanoma = test system: SK-MEL-5 melanoma
SNB-75 CNS = test system: SNB-75 CNS
NCI-H226 lung = test system: NCI-H226 lung
SR leukemia = test system: SR leukemia
A498 renal = test system: A498 renal
HCC-2998 colon = test system: HCC-2998 colon
HOP-62 NSCLC = test system: HOP-62 NSCLC
SF-539 CNS = test system: SF-539 CNS
RXF 393 renal = test system: RXF 393 renal
SW-620 colon = test system: SW-620 colon
T-47D breast = test system: T-47D breast
HCT-116 colon = test system: HCT-116 colon
MDA-MB-231 breast = test system: MDA-MB-231 breast
MALME-3M melanoma = test system: MALME-3M melanoma
786-0 renal = test system: 786-0 renal
MDA-N = test system: MDA-N
A549 NSCLC = test system: A549 NSCLC
U251 CNS = test system: U251 CNS
OVCAR-8 ovarian = test system: OVCAR-8 ovarian
SF-295 CNS = test system: SF-295 CNS
CCRF-CEM leukemia = test system: CCRF-CEM leukemia
NCI-H522 lung = test system: NCI-H522 lung
HL-60(TB) leukemia = test system: HL-60(TB) leukemia
LOX IMVI melanoma = test system: LOX IMVI melanoma
EKVX NSCLC = test system: EKVX NSCLC
SNB-19 CNS = test system: SNB-19 CNS

With `Oc1c(C2=NNC(c3cccs3)C2)ccc2ccccc12` (stereo not drawn) the TGI (UACC-62 melanoma) was 30.3 µM, the TGI (OVCAR-3 ovarian) was 43.5 µM and the TGI (MOLT-4 leukemia) was 30.9 µM. It also gave a TGI (M14 melanoma) of 32.5 µM, a TGI (SF-268 CNS) of 38.3 µM and a TGI (RPMI-8226 leukemia) of 77.9 µM. The TGI (DU-145 prostate) was 61.7 µM, the TGI (OVCAR-4 ovarian) was > 100 µM and the TGI (KM12 colon) was 36.2 µM. For the same compound, the TGI (HCT-15 colon) was > 100 µM, the TGI (MDA-MB-435) was 40 µM and the TGI (SK-OV-3 ovarian) was > 100 µM. For the same compound, the TGI (HS 578T breast) was 74.5 µM, the TGI (MCF7 breast) was 51.7 µM and the TGI (HT29 colon) was 40 µM. The TGI (TK-10 renal) was > 100 µM, the TGI (NCI/ADR-RES ovarian) was 82 µM and the TGI (IGROV1 ovarian) was 95.9 µM. For the same compound, the TGI (K-562 leukemia) was 44 µM, the TGI (BT-549 breast) was > 100 µM and the TGI (HOP-92 NSCLC) was 81.5 µM. For the same compound, the TGI (UO-31 renal) was > 100 µM, the TGI (ACHN renal) was > 100 µM and the TGI (COLO 205 colon) was 37.7 µM. For the same compound, the TGI (UACC-257 melanoma) was > 100 µM, the TGI (PC-3 prostate) was > 100 µM and the TGI (SK-MEL-2 melanoma) was > 100 µM. The TGI (SN12C renal) was 38.1 µM, the TGI (NCI-H23 lung) was > 100 µM and the TGI (NCI-H460 lung) was 43.4 µM. The TGI (SK-MEL-28 melanoma) was > 100 µM, the TGI (CAKI-1 renal) was > 100 µM and the TGI (OVCAR-5 ovarian) was > 100 µM. The TGI (SK-MEL-5 melanoma) was 56.4 µM, the TGI (SNB-75 CNS) was > 100 µM and the TGI (NCI-H226 lung) was > 100 µM. For the same compound, the TGI (SR leukemia) was 29.3 µM, the TGI (A498 renal) was 56.5 µM and the TGI (HCC-2998 colon) was 34.2 µM. The TGI (HOP-62 NSCLC) was 99.4 µM, the TGI (SF-539 CNS) was 43.1 µM and the TGI (RXF 393 renal) was > 100 µM. The TGI (SW-620 colon) was 70.3 µM, the TGI (T-47D breast) was > 100 µM and the TGI (HCT-116 colon) was 30.6 µM. For the same compound, the TGI (MDA-MB-231 breast) was 91.2 µM, the TGI (MALME-3M melanoma) was > 100 µM and the TGI (786-0 renal) was > 100 µM. For the same compound, the TGI (MDA-N) was 35.3 µM, the TGI (A549 NSCLC) was > 100 µM and the TGI (U251 CNS) was 69.5 µM. For the same compound, the TGI (OVCAR-8 ovarian) was 94.2 µM, the TGI (SF-295 CNS) was 57.6 µM and the TGI (CCRF-CEM leukemia) was 37.4 µM. For the same compound, the TGI (NCI-H522 lung) was 60.6 µM.
`Cc1ccc(/C=C2\N=C(N3CCCCC3)NC2=O)cc1` was tested, and the TGI (UACC-62 melanoma) was > 100 µM, the TGI (OVCAR-3 ovarian) was > 100 µM and the TGI (MOLT-4 leukemia) was > 100 µM. For the same compound, the TGI (M14 melanoma) was > 100 µM, the TGI (SF-268 CNS) was > 100 µM and the TGI (RPMI-8226 leukemia) was > 100 µM. For the same compound, the TGI (DU-145 prostate) was > 100 µM, the TGI (OVCAR-4 ovarian) was > 100 µM and the TGI (KM12 colon) was > 100 µM. For the same compound, the TGI (HCT-15 colon) was > 100 µM, the TGI (MDA-MB-435) was > 100 µM and the TGI (SK-OV-3 ovarian) was > 100 µM. The TGI (HS 578T breast) was > 100 µM, the TGI (MCF7 breast) was > 100 µM and the TGI (HT29 colon) was > 100 µM. For the same compound, the TGI (TK-10 renal) was > 100 µM, the TGI (NCI/ADR-RES ovarian) was > 100 µM and the TGI (HL-60(TB) leukemia) was > 100 µM. For the same compound, the TGI (BT-549 breast) was > 100 µM, the TGI (HOP-92 NSCLC) was > 100 µM and the TGI (UO-31 renal) was > 100 µM. The TGI (ACHN renal) was > 100 µM, the TGI (LOX IMVI melanoma) was > 100 µM and the TGI (COLO 205 colon) was > 100 µM. The TGI (UACC-257 melanoma) was > 100 µM, the TGI (PC-3 prostate) was > 100 µM and the TGI (SK-MEL-2 melanoma) was > 100 µM. The TGI (SN12C renal) was > 100 µM, the TGI (NCI-H23 lung) was > 100 µM and the TGI (SK-MEL-28 melanoma) was > 100 µM. The TGI (CAKI-1 renal) was > 100 µM, the TGI (OVCAR-5 ovarian) was > 100 µM and the TGI (NCI-H226 lung) was > 100 µM. For the same compound, the TGI (SR leukemia) was > 100 µM, the TGI (HCC-2998 colon) was > 100 µM and the TGI (HOP-62 NSCLC) was > 100 µM. For the same compound, the TGI (SF-539 CNS) was > 100 µM, the TGI (RXF 393 renal) was > 100 µM and the TGI (SW-620 colon) was > 100 µM. The TGI (T-47D breast) was > 100 µM, the TGI (HCT-116 colon) was > 100 µM and the TGI (MDA-MB-231 breast) was > 100 µM. For the same compound, the TGI (EKVX NSCLC) was > 100 µM, the TGI (MALME-3M melanoma) was > 100 µM and the TGI (786-0 renal) was > 100 µM. For the same compound, the TGI (MDA-N) was > 100 µM, the TGI (A549 NSCLC) was > 100 µM and the TGI (U251 CNS) was > 100 µM. The TGI (OVCAR-8 ovarian) was > 100 µM, the TGI (SF-295 CNS) was > 100 µM and the TGI (CCRF-CEM leukemia) was > 100 µM. The TGI (SNB-19 CNS) was > 100 µM and the TGI (NCI-H522 lung) was > 100 µM.
